Measurements reported in patent publication US20240342265A1, “E PROTEIN-MUTATED WEST NILE VIRUS USED AS LIVE[…] AND ONCOLYTIC DRUG FOR CANCER THERAPY” (priority 2023, published 2024).

How the values were obtained:
[1] = test system: Neuro-2a cells (mouse-derived neuroblastoma); assay: Bilateral mouse neuroblastoma model in A/JGpt mice, right-side intratumoral injection; assay type: in vivo
Procedure: Mouse-derived neuroblastoma cells (Neuro-2a cells, 1×10^8/0.1 ml/mouse) were inoculated into the bilateral lumbar region of A/JGpt female mice (SPF grade 5-week-old). When the diameter of subcutaneous tumor nodules reached 5-6 mm (about 50-100 mm^3), mice were randomly divided into groups per the <10% of tumor volume. The DS1-M2-1 was injected intratumorally only into the right-side tumor on day one.
During the test period, the body weight of each mouse was normal. […] Since the left-side tumor is the non-administered side, it is considered that the effect of DS1-M2-1 on the left-side tumor is a result of the immunotherapy effect.

[2] = test system: SH-SY5Y cells (human neuroblastoma); assay: Human neuroblastoma xenograft model in BALB/c nude mice; assay type: in vivo; conditions: Adriamycin group
Procedure: The attenuated WNV was tested for oncolytic virus activity. Under aseptic conditions, SH-SY5Y cells (4×106/0.1 ml/per mouse) were inoculated into the right flank region of SPF-grade BALB/c nude mice aged 8 to 10 weeks to establish a human neuroblastoma xenograft model. When the diameter of the subcutaneous tumor nodules reached 5˜6 mm (corresponding to a tumor volume of approximately 50 mm3˜100 mm3), the mice were randomly divided into groups ensuring that the difference in tumor volume between groups was <10%. Grouping and management information are as described in Table 4. The day of the first administration was recorded as D1.
The half-effective dose is 421 PFU.

[3] = Doxorubicin-Hydro group, left tumor
[4] = Doxorubicin-Hydro group, right tumor

Structure (SMILES)	Max % TGITV, L [1, 3]	No. of mice with tumor completely eliminated, D 22, L [1, 3]	No. of mice with tumor completely eliminated, No./Total, L [1, 3]	Max % TGITV, R [1, 4]	No. of mice with tumor completely eliminated, D 18, R [1, 4]	No. of mice with tumor completely eliminated, D 22, R [1, 4]	No. of mice with tumor completely eliminated, No./Total, R [1, 4]	% T/C [2]	% TGITV [2]	% TGITW [2]	Tumor Volume (mm^3) Day 31 [2]	Tumor Weight [2]	Max % TGITV, L ([1]; Taxol 20 mg/kg, left tumor)	No. of mice with tumor completely eliminated, No./Total, L ([1]; Taxol 20 mg/kg, left tumor)	Max % TGITV, R ([1]; Taxol 20 mg/kg, right tumor)	No. of mice with tumor completely eliminated, No./Total, R ([1]; Taxol 20 mg/kg, right tumor)
COc1cccc2c1C(=O)c1c(O)c3c(c(O)c1C2=O)C[C@@](O)(C(=O)CO)C[C@@H]3O[C@H]1C[C@H](N)[C@H](O)[C@H](C)O1 [Adriamycin, doxorubicin]	84.23%	3	3/10	83.25%	1	2	3/10	37.43%	63.27%	53.12%	468.07 ± 145.59 mm^3	0.406 ± 0.157 g	–	–	–	–
CC(=O)O[C@H]1C(=O)[C@@]2(C)[C@H]([C@H](OC(=O)c3ccccc3)[C@]3(O)C[C@H](OC(=O)[C@H](O)[C@@H](NC(=O)c4ccccc4)c4ccccc4)C(C)=C1C3(C)C)[C@]1(OC(C)=O)CO[C@@H]1C[C@@H]2O [Taxol, paclitaxel]	–	–	–	–	–	–	–	–	–	–	–	–	50.74%	0/4	46.73%	0/4
